Columns and labels:
[1] = tested on: H460 non-small cell lung cancer cell line; assay: cell viability (proliferation) assay, Trypan blue exclusion counting, H460; assay type: cell-based; details: H460 cells, compound @ 1 μM, 72 hours, vs 1% DMSO control
Experimental: (§1) Anti-oncogenic effects of the compounds of the present invention were evaluated by cell viability (proliferation) assays in H460 non-small cell lung cancer cell line and A549 human lung carcinoma cell line. H460 and A549 were purchased from ATCC (American Type Culture Collection), and they were maintained in RPMI 1640 and DMEM, respectively, with 10% fetal bovine serum. Cell lines were cultured in an incubator with 5% CO2 at 37° C.
(§2) Cells were seeded in 6-well-plates (10^5 cells/ml medium per well) and allowed them to grow for 24 hrs in the incubator. Cells were then treated with 1 μM of tested compounds. Cells treated with 1% DMSO were used as control. 72 hours after treatment, cells were removed by trypsinization and viable cell number was obtained by counting Trypan blue-excluding cells under microscope with a hemocytometer. Experiments were performed in triplicate. Statistical were carried out by analysis of variance (ANOVA) and LSD test for multiple comparisons, with p<0.05 considered significant.

[2] = tested on: A549 human lung carcinoma cell line; assay: cell viability (proliferation) assay, Trypan blue exclusion counting, A549; assay type: cell-based; details: A549 cells, compound @ 1 μM, 72 hours, vs 1% DMSO control
Experimental: as §1, §2

| Compound | Cell Death (%) after 3-day treatment [1] [%] | Cell Death (%) after 3-day treatment [2] [%] |
| --- | --- | --- |
| COC1=CC(c2cc3sc(Cl)cc3[nH]2)=N/C1=C\c1[nH]c(C)cc1C [Example 2, (Z)-2-chloro-5-(2-((3,5-dimethyl-1H-pyrrol-2-yl)methylene)-3-methoxy-2H-pyrrol-5-yl)-4H-thieno[3,2-b]pyrrole] | 88.6 | 86.7 |
| COC1=CC(c2cc3ccccc3[nH]2)=N/C1=C\c1[nH]c(C)cc1C [Obatoclax] | 88.3 | 76.6 |

— US8946445B2, “Heterocyclic molecules as apoptosis inducers” (Nanjing Allgen Pharma Co. Ltd., priority 2011, dated 2015)
